Source: patent US20100137313A1 (ASTRAZENECA AB, priority 2008, published 2010)

Target: S. pneumoniae Topoisomerase IV ATPase (ParE) (Streptococcus pneumoniae serotype 4, UniProt Q59961)
Assay: S. pneumoniae Topoisomerase IV ATPase inhibition
Type: biochemical
Details: values marked * are an average of two or more data points, read-out: % Inh (13 μM) of S. pneumoniae Topoisomerase IV ATPase
Summary of the method: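 Malachite green/ammonium molybdate phosphate detection, A650. 1.25 nM ParE, 160 μM ATP, sheared salmon sperm DNA 5 μg/ml, 20 mM Tris pH 8.0, 8.0 mM MgCl2. Controls: 2% DMSO = 0%, 20 μM EDTA = 100% inhibition; IC50 over 10 concentrations.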

Chain of S. pneumoniae Topoisomerase IV ATPase (ParE) (Q59961 whole entry): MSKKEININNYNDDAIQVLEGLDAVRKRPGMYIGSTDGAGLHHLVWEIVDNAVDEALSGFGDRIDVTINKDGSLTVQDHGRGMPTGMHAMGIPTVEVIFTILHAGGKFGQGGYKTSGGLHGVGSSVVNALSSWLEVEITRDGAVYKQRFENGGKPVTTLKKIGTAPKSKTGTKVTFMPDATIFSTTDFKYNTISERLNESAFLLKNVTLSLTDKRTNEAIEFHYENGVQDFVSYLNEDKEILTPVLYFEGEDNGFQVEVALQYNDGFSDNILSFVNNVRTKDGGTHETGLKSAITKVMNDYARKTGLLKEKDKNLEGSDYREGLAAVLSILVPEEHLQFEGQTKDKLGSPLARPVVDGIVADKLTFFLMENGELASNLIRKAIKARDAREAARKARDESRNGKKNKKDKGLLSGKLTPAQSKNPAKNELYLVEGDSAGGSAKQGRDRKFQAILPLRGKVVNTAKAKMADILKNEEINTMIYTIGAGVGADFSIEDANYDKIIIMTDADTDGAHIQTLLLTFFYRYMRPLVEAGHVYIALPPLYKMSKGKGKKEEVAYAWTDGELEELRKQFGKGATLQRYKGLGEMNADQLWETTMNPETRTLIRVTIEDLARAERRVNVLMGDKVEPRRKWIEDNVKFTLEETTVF

N#Cc1cc(Cl)cc(Nc2ncc(-c3cncc(C(=O)O)c3)c(N3CCOCC3)n2)c1 [Example 392, 5-[2-(3-Chloro-5-cyano-phenylamino)-4-morpholin-4-yl-pyrimidin-5-yl]-nicotinic acid] gave an inhibition at 13 µM of 74%.

O=C(O)c1cccc(-c2cnc(Nc3cc(F)cc(Cl)c3)nc2N2CCOCC2)n1 [Example 393, 6-[2-(3-Chloro-5-fluoro-phenylamino)-4-morpholin-4-yl-pyrimidin-5-yl]-pyridine-2-carboxylic acid] showed an inhibition at 13 µM of 82%.

COc1cc(F)cc(Nc2ncc(-c3cncc(C(=O)O)c3)c(N3CCOCC3)n2)c1 [Example 394, 5-[2-(3-Fluoro-5-methoxy-phenylamino)-4-morpholino-4-yl-pyrimidin-5-yl]-nicotinic acid] was tested, and the inhibition at 13 µM was 94%.

For COc1c(F)cc(Nc2ncc(-c3cccc(/C=C/C(=O)O)c3)c(N3CCOCC3)n2)cc1F [Example 403, (E)-3-{3-[2-(3,5-Difluoro-4-methoxy-phenylamino)-4-morpholin-4-yl-pyrimidin-5-yl]-phenyl}-acrylic acid], the inhibition at 13 µM was 30%.

In the case of O=C(O)/C=C/c1cccc(-c2cnc(Nc3cc(F)cc(F)c3)nc2N2CCOCC2)c1 [Example 404, (E)-3-{3-[2-(3,5-Difluoro-phenylamino)-4-morpholin-4-yl-pyrimidin-5-yl]-phenyl}-acrylic acid], the inhibition at 13 µM is reported as 81%.

For Cc1cc(C)cc(Nc2ncc(-c3cccc(/C=C/C(=O)O)c3)c(N3CCOCC3)n2)c1 [Example 405, (E)-3-{3-[2-(3,5-Dimethyl-phenylamino)-4-morpholin-4-yl-pyrimidin-5-yl]-phenyl}-acrylic acid], the inhibition at 13 µM was 85%.

In the case of N#Cc1cc(F)cc(Nc2ncc(-c3cccc(/C=C/C(=O)O)c3)c(N3CCOCC3)n2)c1 [Example 407, (E)-3-{3-[2-(3-Cyano-5-fluoro-phenylamino)-4-morpholin-4-yl-pyrimidin-5-yl]-phenyl}-acrylic acid], the inhibition at 13 µM is reported as 86%.

In the case of N#Cc1cc(Cl)cc(Nc2ncc(-c3cccc(/C=C/C(=O)O)c3)c(N3CCOCC3)n2)c1 [Example 408, (E)-3-{3-[2-(3-Chloro-5-cyano-phenylamino)-4-morpholin-4-yl-pyrimidin-5-yl]-phenyl}-acrylic acid], the inhibition at 13 µM is reported as 100%.

Work on O=C(O)/C=C/c1cccc(-c2cnc(Nc3cc(F)cc(Cl)c3)nc2N2CCOCC2)c1 [Example 409, (E)-3-{3-[2-(3-Chloro-5-fluoro-phenylamino)-4-morpholin-4-yl-pyrimidin-5-yl]-phenyl}-acrylic acid] yielded an inhibition at 13 µM of 77%.

With COc1cc(F)cc(Nc2ncc(-c3cccc(/C=C/C(=O)O)c3)c(N3CCOCC3)n2)c1 [Example 410, (E)-3-{3-[2-(3-Fluoro-5-methoxy-phenylamino)-4-morpholin-4-yl-pyrimidin-5-yl]-phenyl}-acrylic acid] the inhibition at 13 µM was 100%.

Compound O=C(O)c1cncc(-c2cnc(Nc3ccc(F)cc3)nc2N2CCOCC2)c1 [Example 435] has an inhibition at 13 µM of 51%.

In the case of O=C(O)c1cncc(-c2cnc(Nc3ccc(F)c([N+](=O)[O-])c3)nc2N2CCOCC2)c1 [Example 436], the inhibition at 13 µM is reported as 69%.

For O=C(O)c1cncc(-c2cnc(Nc3ccc(F)c(C(F)(F)F)c3)nc2N2CCOCC2)c1 [Example 437], the inhibition at 13 µM was 75%.

Cc1cc(Nc2ncc(-c3cncc(C(=O)O)c3)c(N3CCOCC3)n2)ccc1F [Example 438] gave an inhibition at 13 µM of 81%.

In the case of COc1cccc(Nc2ncc(-c3cncc(C(=O)O)c3)c(N3CCOCC3)n2)c1 [Example 439], the inhibition at 13 µM is reported as 62%.

N#Cc1cc(Nc2ncc(-c3cncc(C(=O)O)c3)c(N3CCOCC3)n2)ccc1F [Example 440] was tested, and the inhibition at 13 µM was 85%.

In the case of COc1cc(Nc2ncc(-c3cncc(C(=O)O)c3)c(N3CCOCC3)n2)ccc1F [Example 441], the inhibition at 13 µM is reported as 74%.

For O=C(O)c1cncc(-c2cnc(Nc3ccc(F)c(Br)c3)nc2N2CCOCC2)c1 [Example 443], the inhibition at 13 µM was 85%.

Work on O=C(O)c1cncc(-c2cnc(Nc3ccc(F)c(S(=O)(=O)N4CCOCC4)c3)nc2N2CCOCC2)c1 [Example 444] yielded an inhibition at 13 µM of 7%.

Compound COc1cc(Nc2ncc(-c3cncc(C(=O)O)c3)c(N3CCOCC3)n2)cc(-n2nnnc2C)c1 [Example 445] has an inhibition at 13 µM of 34%.

O=C(O)/C=C/c1cccc(-c2cnc(Nc3ccc(F)cc3)nc2N2CCOCC2)c1 [Example 447] gave an inhibition at 13 µM of 50%.

Compound O=C(O)/C=C/c1cccc(-c2cnc(Nc3ccc(F)c([N+](=O)[O-])c3)nc2N2CCOCC2)c1 [Example 448] has an inhibition at 13 µM of 82%.

Work on Cc1cc(Nc2ncc(-c3cccc(/C=C/C(=O)O)c3)c(N3CCOCC3)n2)ccc1F [Example 450] yielded an inhibition at 13 µM of 86%.

In the case of COc1cccc(Nc2ncc(-c3cccc(/C=C/C(=O)O)c3)c(N3CCOCC3)n2)c1 [Example 451], the inhibition at 13 µM is reported as 70%.

Work on COc1cc(Nc2ncc(-c3cccc(/C=C/C(=O)O)c3)c(N3CCOCC3)n2)ccc1F [Example 452] yielded an inhibition at 13 µM of 76%.

COc1cc(Nc2ncc(-c3cccc(/C=C/C(=O)O)c3)c(N3CCOCC3)n2)cc([N+](=O)[O-])c1 [Example 453] showed an inhibition at 13 µM of 92%.

For O=C(O)/C=C/c1cccc(-c2cnc(Nc3ccc(F)c(Br)c3)nc2N2CCOCC2)c1 [Example 454], the inhibition at 13 µM was 92%.

COCCOc1cccc(Nc2ncc(-c3cccc(/C=C/C(=O)O)c3)c(N3CCOCC3)n2)c1 [Example 457] showed an inhibition at 13 µM of 28%.

For O=C(O)c1coc2ccc(-c3cnc(Nc4ccc(F)c(Cl)c4)nc3N3CCOCC3)cc2c1=O [Example 459, 6-(2-(3-chloro-4-fluorophenylamino)-4-morpholinopyrimidin-5-yl)-4-oxo-4H-chromene-3-carboxylic acid], the inhibition at 13 µM was 100%.

COc1ncc(-c2cnc(Nc3ccc(F)c(Cl)c3)nc2NCCc2cccnc2)cn1 [Example 460, N^2-(3-chloro-4-fluorophenyl)-2′-methoxy-N^4-[2-(pyridin-3-yl)ethyl]-5,5′-bipyrimidine-2,4-diamine] showed an inhibition at 13 µM of 100%.

COc1ncc(-c2cnc(Nc3ccc(F)c(Cl)c3)nc2NCCc2ccncc2)cn1 [Example 461, N^2-(3-chloro-4-fluorophenyl)-2′-methoxy-N^4-[2-(pyridin-4-yl)ethyl]-5,5′-bipyrimidine-2,4-diamine] gave an inhibition at 13 µM of 100%.

COc1ncc(-c2cnc(Nc3ccc(F)c(Cl)c3)nc2NCCc2c[nH]cn2)cn1 [Example 462, N^2-(3-chloro-4-fluorophenyl)-N^4-[2-(1H-imidazol-4-yl)ethyl]-2′-methoxy-5,5′-bipyrimidine-2,4-diamine] was tested, and the inhibition at 13 µM was 85%.

For COc1ncc(-c2cnc(Nc3ccc(F)c(Cl)c3)nc2NCc2ccncc2C)cn1 [Example 463, N2-(3-chloro-4-fluorophenyl)-2′-methoxy-N4-((3-methylpyridin-4-yl)methyl)-5,5′-bipyrimidine-2,4-diamine], the inhibition at 13 µM was 67%.

COc1cc(CNc2nc(Nc3ccc(F)c(Cl)c3)ncc2-c2cnc(OC)nc2)cc(OC)c1 [Example 464, N2-(3-chloro-4-fluorophenyl)-N4-(3,5-dimethoxybenzyl)-2′-methoxy-5,5′-bipyrimidin-2,4-diamine] was tested, and the inhibition at 13 µM was 36%.

With COc1ccc(CNc2nc(Nc3ccc(F)c(Cl)c3)ncc2-c2cnc(OC)nc2)cn1 [Example 465, N2-(3-chloro-4-fluorophenyl)-2′-methoxy-N4-((6-methoxypyridin-3-yl)methyl)-5,5′-bipyrimidine-2,4-diamine] the inhibition at 13 µM was 59%.

COc1ncc(-c2cnc(Nc3ccc(F)c(Cl)c3)nc2NCC2CCN(C(=O)C3CC3)CC2)cn1 [Example 466, (4-((2-(3-chloro-4-fluorophenylamino)-2′-methoxy-5,5′-bipyrimidin-4-ylamino)methyl)piperidin-1-yl)(cyclopropyl)methanone] showed an inhibition at 13 µM of 78%.

CCN1CC(CNc2nc(Nc3ccc(F)c(Cl)c3)ncc2-c2cnc(OC)nc2)CC1=O (stereo not shown) [Example 467, 4-((2-(3-chloro-4-fluorophenylamino)-2′-methoxy-5,5′-bipyrimidin-4-ylamino)methyl)-1-ethylpyrrolidin-2-one] showed an inhibition at 13 µM of 76%.

For CCN1CCC(CNc2nc(Nc3ccc(F)c(Cl)c3)ncc2-c2cnc(OC)nc2)CC1 [Example 468, N2-(3-chloro-4-fluorophenyl)-N4-((1-ethylpiperidin-4-yl)methyl)-2′-methoxy-5,5′-bipyrimidine-2,4-diamine], the inhibition at 13 µM was 80%.

With COc1ncc(-c2cnc(Nc3ccc(F)c(Cl)c3)nc2NCc2cnn(C)c2C)cn1 [Example 469, N2-(3-chloro-4-fluorophenyl)-N4-((1,5-dimethyl-1H-pyrazol-4-yl)methyl)-2′-methoxy-5,5′-bipyrimidine-2,4-diamine] the inhibition at 13 µM was 64%.

Fc1ccc(Nc2ncc(-c3cncnc3)c(NCCc3c[nH]cn3)n2)cc1Cl [Example 471, N^2-(3-chloro-4-fluorophenyl)-N^4-[2-(1H-imidazol-4-yl)ethyl]-5,5′-bipyrimidine-2,4-diamine] showed an inhibition at 13 µM of 84%.

Work on NC(=O)c1cncc(-c2cnc(Nc3ccc(F)c(Cl)c3)nc2NCCc2c[nH]cn2)c1 [Example 472, 5-(2-[(3-chloro-4-fluorophenyl)amino]-4-{[2-(1H-imidazol-4-yl)ethyl]amino}pyrimidin-5-yl)-pyridine-3-carboxamide] yielded an inhibition at 13 µM of 100%.

Compound NC(=O)c1cncc(-c2cnc(Nc3ccc(F)c(Cl)c3)nc2NCCc2cccnc2)c1 [Example 473, 5-(2-[(3-chloro-4-fluorophenyl)amino]-4-{[2-(pyridin-3-yl)ethyl]amino}pyrimidin-5-yl)-pyridine-3-carboxamide] has an inhibition at 13 µM of 62%.

Work on NC(=O)c1cncc(-c2cnc(Nc3ccc(F)c(Cl)c3)nc2NCCc2ccncc2)c1 [Example 474, 5-(2-[(3-chloro-4-fluorophenyl)amino]-4-{[2-(pyridin-4-yl)ethyl]amino}pyrimidin-5-yl)-pyridine-3-carboxamide] yielded an inhibition at 13 µM of 100%.
